# Data published in patent US9302999B2, “Substituted triazoles as herbicides” (E. I. DU PONT DE NEMOURS AND COMPANY, priority 2012, dated 2016).
# What was measured:
# Assay type in all cases: in vivo
# [1] = tested on: large crabgrass (Digitaria sanguinalis); test: Test C pre-/postemergence: large crabgrass
# In short: (§1)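 Preemergence on seeds in loam/sand, postemergence on 2–18 cm (1–4-leaf) plants in peat-based medium; compounds in non-phytotoxic solvent with surfactant. After 13–15 days in greenhouse, visual rating versus controls, 0 (no effect) to 100 (complete control).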
# [2] = tested on: ducksalad (Heteranthera limosa); test: Test B flooded paddy: ducksalad; details: Flood; 250 g ai/ha; applied to paddy water at 2-leaf stage; visually evaluated after 13 to 15 days
# In short: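 Paddy-water application: seedlings at 2-leaf stage, flood depth 3 cm maintained for the test duration. Evaluation after 13–15 days in the greenhouse by eye relative to controls; 0–100 scale.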
# [3] = tested on: corn (Zea mays); test: Test C pre-/postemergence: corn
# In short: as §1
# [4] = tested on: chickweed (common chickweed, Stellaria media); test: Test C postemergence: chickweed
# In short: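 Pot-grown plants in peat/vermiculite medium sprayed postemergence at 2–18 cm height (1- to 4-leaf stage). Kept in greenhouse 13 to 15 days, then visually rated against untreated controls on a 0–100 scale (0 = no effect, 100 = complete control).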
# [5] = tested on: ragweed (common ragweed, Ambrosia elation); test: Test C pre-/postemergence: ragweed
# In short: as §1
# [6] = tested on: kochia (Kochia scoparia); test: Test C pre-/postemergence: kochia; details: Postemergence
# In short: as §1
# [7] = tested on: foxtail, giant (giant foxtail, Setaria faberii); test: Test C pre-/postemergence: foxtail, giant
# In short: as §1
# [8] = tested on: nutsedge, yellow (yellow nutsedge, Cyperus esculentus); test: Test C pre-/postemergence: nutsedge, yellow
# In short: as §1
# [9] = tested on: wild oat (Avena fatua); test: Test C pre-/postemergence: wild oat; details: Postemergence
# In short: as §1
# [10] = tested on: velvetleaf (Abutilon theophrasti); test: Test C pre-/postemergence: velvetleaf
# In short: as §1
# [11] = tested on: corn (Zea mays); test: Test A pre-/postemergence: corn
# In short: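 Injury is scored visually on a scale where 0 means no effect and 100 complete control, comparing treated with untreated plants after approximately ten greenhouse days. Both preemergence and postemergence applications are made at the same time.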
# [12] = Postemergence, 31 g ai/ha, scale 0 to 100 (0 no effect, 100 complete control)
# [13] = Postemergence, 62 g ai/ha, scale 0 to 100 (0 no effect, 100 complete control)
# [14] = Postemergence, 125 g ai/ha, scale 0 to 100, 0 no effect, 100 complete control
# [15] = Postemergence, 250 g ai/ha, scale 0 to 100
# [16] = Preemergence, 31 g ai/ha, scale 0 (no effect) to 100 (complete control)
# [17] = Preemergence, 62 g ai/ha, scale of 0 to 100, 0 is no effect, 100 is complete control
# [18] = Preemergence, 125 g ai/ha, scale 0 to 100, 0 no effect, 100 complete control
# [19] = Preemergence, 250 g ai/ha, scale 0 to 100, 0 no effect, 100 complete control
# [20] = 31 g ai/ha, scale 0 to 100 (0 no effect, 100 complete control)
# [21] = 62 g ai/ha, scale 0 to 100 (0 no effect, 100 complete control)
# [22] = 125 g ai/ha, scale 0 to 100, 0 no effect, 100 complete control
# [23] = Postemergence, 250 g ai/ha, scale 0 to 100 (0 no effect, 100 complete control)
# [24] = 250 g ai/ha, scale 0 to 100 (0 no effect, 100 complete control)
# [25] = Postemergence, 125 g ai/ha, 0 to 100 scale, 0 is no effect, 100 is complete control
# [26] = Postemergence, 500 g ai/ha, 0 to 100 scale, 0 is no effect, 100 is complete control
# [27] = Preemergence, 125 g ai/ha, 0 to 100 scale where 0 is no effect and 100 is complete control
# [28] = Preemergence, 500 g ai/ha, 0 to 100 scale (0 no effect, 100 complete control)
smiles,measurement,setting,value
CCCc1nn(-c2ccc(F)c(F)c2)nc1Oc1ccnc(C(F)(F)F)c1 [Compound 172],"Plant response rating, Crabgrass, Large",[1]; [12],20
same,"Plant response rating, Crabgrass, Large",[1]; [13],55
same,"Plant response rating, Crabgrass, Large",[1]; [14],65
same,"Plant response rating, Crabgrass, Large",[1]; [15],95
same,"Plant response rating, Crabgrass, Large",[1]; [16],100
same,"Plant response rating, Crabgrass, Large",[1]; [17],100
same,"Plant response rating, Crabgrass, Large",[1]; [18],100
same,"Plant response rating, Crabgrass, Large",[1]; [19],100
same,"Plant response rating, Ducksalad (0 to 100 scale, 0 is no effect, 100 is complete control)",[2],0
same,"Plant response rating, Corn",[3]; [12],20
same,"Plant response rating, Corn",[3]; [13],20
same,"Plant response rating, Corn",[3]; [14],25
same,"Plant response rating, Corn",[3]; [15],30
same,"Plant response rating, Corn",[3]; [16],5
same,"Plant response rating, Corn",[3]; [17],5
same,"Plant response rating, Corn",[3]; [18],15
same,"Plant response rating, Corn",[3]; [19],40
same,"Plant response rating, Chickweed",[4]; [20],65
same,"Plant response rating, Chickweed",[4]; [21],85
same,"Plant response rating, Chickweed",[4]; [22],90
same,"Plant response rating, Chickweed","[4]; 250 g ai/ha, scale 0 to 100",90
same,"Plant response rating, Ragweed",[5]; [12],75
same,"Plant response rating, Ragweed",[5]; [13],75
same,"Plant response rating, Ragweed",[5]; [14],80
same,"Plant response rating, Ragweed",[5]; [23],80
same,"Plant response rating, Ragweed",[5]; [16],35
same,"Plant response rating, Ragweed",[5]; [17],40
same,"Plant response rating, Ragweed",[5]; [18],80
same,"Plant response rating, Ragweed",[5]; [19],85
same,"Plant response rating, Kochia",[6]; [20],90
same,"Plant response rating, Kochia",[6]; [21],90
same,"Plant response rating, Kochia",[6]; [22],90
same,"Plant response rating, Kochia",[6]; [24],90
same,"Plant response rating, Foxtail, Giant",[7]; [12],35
same,"Plant response rating, Foxtail, Giant",[7]; [13],35
same,"Plant response rating, Foxtail, Giant",[7]; [14],80
same,"Plant response rating, Foxtail, Giant",[7]; [15],95
same,"Plant response rating, Foxtail, Giant",[7]; [16],100
same,"Plant response rating, Foxtail, Giant",[7]; [17],100
same,"Plant response rating, Foxtail, Giant",[7]; [18],100
same,"Plant response rating, Foxtail, Giant",[7]; [19],100
same,"Plant response rating, Nutsedge, Yellow",[8]; [12],10
same,"Plant response rating, Nutsedge, Yellow",[8]; [13],10
same,"Plant response rating, Nutsedge, Yellow",[8]; [14],15
same,"Plant response rating, Nutsedge, Yellow",[8]; [23],15
same,"Plant response rating, Nutsedge, Yellow",[8]; [16],0
same,"Plant response rating, Nutsedge, Yellow",[8]; [17],5
same,"Plant response rating, Nutsedge, Yellow",[8]; [18],5
same,"Plant response rating, Nutsedge, Yellow",[8]; [19],5
same,"Plant response rating, Oat, Wild",[9]; [20],15
same,"Plant response rating, Oat, Wild",[9]; [21],20
same,"Plant response rating, Oat, Wild",[9]; [22],45
same,"Plant response rating, Oat, Wild",[9]; [24],80
same,"Plant response rating, Velvetleaf",[10]; [12],65
same,"Plant response rating, Velvetleaf",[10]; [13],65
same,"Plant response rating, Velvetleaf",[10]; [14],75
same,"Plant response rating, Velvetleaf",[10]; [23],80
same,"Plant response rating, Velvetleaf",[10]; [16],60
same,"Plant response rating, Velvetleaf",[10]; [17],75
same,"Plant response rating, Velvetleaf",[10]; [18],100
same,"Plant response rating, Velvetleaf",[10]; [19],100
same,"Plant response rating, Corn",[11]; [25],30
same,Corn plant response rating,[11]; [26],50
same,"Plant response rating, Corn",[11]; [27],30
same,"Plant response rating, Corn",[11]; [28],60
CCc1nn(-c2ccc(F)c(F)c2)nc1Oc1ccnc(C(F)(F)F)c1 [Compound 171],"Plant response rating, Crabgrass, Large",[1]; [12],15
same,"Plant response rating, Crabgrass, Large",[1]; [13],20
same,"Plant response rating, Crabgrass, Large",[1]; [14],40
same,"Plant response rating, Crabgrass, Large",[1]; [15],55
same,"Plant response rating, Crabgrass, Large",[1]; [16],85
same,"Plant response rating, Crabgrass, Large",[1]; [17],100
same,"Plant response rating, Crabgrass, Large",[1]; [18],100
same,"Plant response rating, Crabgrass, Large",[1]; [19],100
same,"Plant response rating, Ducksalad (0 to 100 scale, 0 is no effect, 100 is complete control)",[2],0
same,"Plant response rating, Corn",[3]; [12],15
same,"Plant response rating, Corn",[3]; [13],15
same,"Plant response rating, Corn",[3]; [14],15
same,"Plant response rating, Corn",[3]; [15],15
same,"Plant response rating, Corn",[3]; [16],0
same,"Plant response rating, Corn",[3]; [17],0
same,"Plant response rating, Corn",[3]; [18],5
same,"Plant response rating, Corn",[3]; [19],25
same,"Plant response rating, Chickweed",[4]; [20],50
same,"Plant response rating, Chickweed",[4]; [21],70
same,"Plant response rating, Chickweed",[4]; [22],95
same,"Plant response rating, Chickweed","[4]; 250 g ai/ha, scale 0 to 100",100
same,"Plant response rating, Ragweed",[5]; [12],55
same,"Plant response rating, Ragweed",[5]; [13],55
same,"Plant response rating, Ragweed",[5]; [14],55
same,"Plant response rating, Ragweed",[5]; [23],55
same,"Plant response rating, Ragweed",[5]; [16],0
same,"Plant response rating, Ragweed",[5]; [17],5
same,"Plant response rating, Ragweed",[5]; [18],10
same,"Plant response rating, Ragweed",[5]; [19],15
same,"Plant response rating, Kochia",[6]; [20],90
same,"Plant response rating, Kochia",[6]; [21],90
same,"Plant response rating, Kochia",[6]; [22],90
same,"Plant response rating, Kochia",[6]; [24],90
same,"Plant response rating, Foxtail, Giant",[7]; [12],25
same,"Plant response rating, Foxtail, Giant",[7]; [13],35
same,"Plant response rating, Foxtail, Giant",[7]; [14],55
same,"Plant response rating, Foxtail, Giant",[7]; [15],70
same,"Plant response rating, Foxtail, Giant",[7]; [16],98
same,"Plant response rating, Foxtail, Giant",[7]; [17],100
same,"Plant response rating, Foxtail, Giant",[7]; [18],100
same,"Plant response rating, Foxtail, Giant",[7]; [19],100
same,"Plant response rating, Nutsedge, Yellow",[8]; [12],5
same,"Plant response rating, Nutsedge, Yellow",[8]; [13],5
same,"Plant response rating, Nutsedge, Yellow",[8]; [14],10
same,"Plant response rating, Nutsedge, Yellow",[8]; [23],10
same,"Plant response rating, Nutsedge, Yellow",[8]; [16],0
same,"Plant response rating, Nutsedge, Yellow",[8]; [17],0
same,"Plant response rating, Nutsedge, Yellow",[8]; [18],0
same,"Plant response rating, Nutsedge, Yellow",[8]; [19],0
same,"Plant response rating, Oat, Wild",[9]; [20],5
same,"Plant response rating, Oat, Wild",[9]; [21],5
same,"Plant response rating, Oat, Wild",[9]; [22],10
same,"Plant response rating, Oat, Wild",[9]; [24],20
same,"Plant response rating, Velvetleaf",[10]; [12],25
same,"Plant response rating, Velvetleaf",[10]; [13],25
same,"Plant response rating, Velvetleaf",[10]; [14],45
same,"Plant response rating, Velvetleaf",[10]; [23],75
same,"Plant response rating, Velvetleaf",[10]; [16],5
same,"Plant response rating, Velvetleaf",[10]; [17],25
same,"Plant response rating, Velvetleaf",[10]; [18],55
same,"Plant response rating, Velvetleaf",[10]; [19],65
same,"Plant response rating, Corn",[11]; [25],20
same,Corn plant response rating,[11]; [26],30
same,"Plant response rating, Corn",[11]; [27],10
same,"Plant response rating, Corn",[11]; [28],30
